“Also recorded” adds a separate entry of the source.
Key:
primary human microglia = test: Phagocytosis assay with fluorescent latex beads; type: cell-based; conditions: added to rSELP; SELPi 0.5 µM, antibodies 2.5 µg/ml
Protocol: Phagocytosis assay. Primary human/murine microglia were seeded in 96 well plates (1 × 10^5 cells/ml) in microglia medium, microglia medium supplemented with rSELP (1.5 µg/ml for human microglia and 3.5 µg/ml for murine microglia), microglia medium supplemented with rSELP and SELPi (0.5 µM), microglia medium supplemented with rSELP and anti-PSGL-1 neutralizing antibody (2.5 µg/ml), microglia medium 13 supplemented with rSELP and anti-CD44 neutralizing antibody (2.5 µg/ml) or microglia medium supplemented with rSELP and anti-CD24 neutralizing antibody (2.5 µg/ml) for 48 h. The medium was then replaced by fresh microglia medium containing green fluorescence latex beads for 2-6 h and washed with PBS supplemented with Hoechst staining solution for 10 min. For evaluation of murine macrophages phagocytosis abilities, macrophages were seeded in 96 well plates (5 × 10^5 cells/ml), treated with macrophages medium, macrophages medium supplemented with rSELP (3.5 µg/ml), macrophages medium supplemented with rSELP and SELPi (0.5 µM), macrophages medium supplemented with rSELP and anti-PSGL-1 neutralizing antibody (2.5 µg/ml), macrophages medium supplemented with rSELP and anti-CD44 neutralizing antibody (2.5 µg/ml) or macrophages medium supplemented with rSELP and anti-CD24 neutralizing antibody (2.5 µg/ml) for 48 h. […]

[1] = test system: bone marrow derived macrophages (BMDM); test: Flow cytometry of PSGL-1, CD206, CD38 on bone marrow derived macrophages; type: cell-based, murine
Protocol: Primary murine bone marrow-derived macrophages (BMDM) isolation. Bone marrow cells were freshly isolated from the tibias and the femurs of 8-12 weeks old C57BL/6 mice (Envigo CRS, Israel). Bone marrow cells were extracted using 25-gauge syringe and passed through a 70 µm nylon strainer (Corning, Israel). For macrophages differentiation cells were incubated with 50 ng/ml recombinant murine GM-CSF for one week. The medium was replaced 4 days post cells isolation. Cells were tested for CD11b and F4/80 expression using flow cytometry.
(§1) Flow cytometry. For flow cytometry assays, cells were harvested using a cell scraper, and were then washed with PBS followed by additional washes with PBS supplemented with 1% BSA and 5 mM EDTA (FACS buffer). Tumor spheroids were recovered from Matrigel using Cell Recovery Solution (Corning) and washed with FACS buffer. To validate the purity of the microglia preparations, CD11b isolated cells or human microglia were incubated with TMEM119 and P2Y12-labeled antibodies for 1 h. For human TMEM119, primary antibody was unlabeled and cells were washed and incubated with secondary, Alexa 488 conjugated antibody. To assess P-Selectin and PSGL-1 expression, GB cells and microglia were seeded alone, co-cultured in a 2D petri dish, or grown as spheroids seeded in Matrigel. Cells were treated with control medium or CM for 48 h. They were then incubated with mouse anti-human P-Selectin antibody for 1 h on ice, and then were washed, and incubated with Alexa-488 labeled anti-mouse IgG binding protein for 1 h on ice. Alternatively, cells were incubated with rat anti-human PSGL antibody, and then were washed, and incubated with goat anti-rat, Alexa-488 labeled antibody for 1 h on ice. […] Fluorescence intensity was assessed using either an Attune flow cytometer (Life Technologies) or a Gallios™ flow cytometer (Beckman Coulter, USA) and the results were analyzed by Kaluza software (Beckman Coulter, USA).

GL261 GB tumors = test: SELPi treatment in murine GL261 GB model; type: in vivo, C57BL/6 mice
Protocol: Tumor volume was evaluated by MRI.
SELPi treatments. KF 38789 (SELPi) is a commercially-available P-Selectin inhibitor manufactured by Tocris BioScience. […] This compound is commonly used for research of immune-related processes such as tumor metastases formation. For the experiment described above, SELPi (0.8 mg/ml) was dissolved in DMSO (0.01%), polyethyleneglycol (93.2 mg/ml), Tween-80 (14.8 mg/ml) and DDW. Mice were injected with 16 mg/kg IV, twice a week, three times a week or QOD as described above. As control (vehicle), mice were injected with DMSO (0.01%), polyethyleneglycol (93.2 mg/ml), Tween-80 (14.8 mg/ml), in DDW at equivalent volume.
MRI imaging. Tumor bearing mice were imaged at the Sackler Cellular & Molecular Imaging Center (SCMIC), Tel Aviv University. Mice were anesthetized by ketamine (150 mg/kg) and xylazine (12 mg/kg) injected IP. T1 with contrast agent (Magnetol, Gd-DTPA, Soreq M.R.C. Israel Radiopharmaceuticals) and T2 weighted images were taken by 4.7T MRI - MRS 4000™ (MR solutions).

human microglia = test: Flow cytometry of CD163 and CD206 expression by microglia; type: cell-based; conditions: PD-GB4 CM with rSELP, or SELPi added to PD-GB4 CM
Protocol: as §1

[2] = rSELP, or SELPi added to rSELP containing medium

SMILES: COc1ccc(C2CC(c3c(O)cc(C)oc3=O)=NCCS2)c(OC)c1 (stereo not shown) [SELPi, 3-[7-(2,4-Dimethoxyphenyl)-2,3,6,7-tetrahydro-1,4-thiazepin-5-yl]-4-hydroxy-6-methyl-2H-pyran-2-one]
- restoration of phagocytic function (primary human microglia): restored the phagocytic function
- PSGL-1 expression ([1]; rSELP and GB CM, or SELPi added to GB CM): reduced
- CD38 expression [1, 2]: elevated
- CD206 expression [1, 2]: reduced
- tumor volume (MRI) (GL261 GB tumors; GL261, SELPi IV 16 mg/kg three times a week, 16 mg/kg): significant reduction in tumor volume; also recorded: reduced tumor growth
- CD4+ and CD8+ T cells in tumors (GL261 GB tumors; GL261 tumors): increase
- CD4+/FOXP3+ T cells in tumors (GL261 GB tumors; GL261 tumors): decrease
- blood vessel density (CD31 immunostaining) (GL261 GB tumors; GL261 tumors): clear reduction
- proliferation (Ki-67 immunostaining) (GL261 GB tumors; GL261 tumors): clear reduction
- CD206 expression (human microglia): reduced CD206 expression

From US20230303712A1, “METHODS OF TREATING GLIOBLASTOMA” (Ramot at Tel-Aviv University Ltd., priority 2020, published 2023)
